Experimental data published in patent US4916147A, “3-[(4-Aroyl) phenoxy (or phenylthio)]-cyclopentanecarboxylic acid analogues and treatment of cerebral edema therewith” (Ono Pharmaceutical Co., Ltd., priority 1985, dated 1990).

Experiments:
[1] = test system: organ slice of cat cerebral cortex; assay: Inhibition test on cerebral edema using organ slice of cat cerebral cortex (NaHCO3-stimulated swelling); type: cell-based; conditions: Felis catus, 50 min, cat cerebral cortex slices, 50 minutes at 37° C., pH 7.4, swelling stimulated with NaHCO3; for inhibition at 0.01 µM: 10^-8 M, read-out: a percentage of inhibition of swelling at 10^-8 M (%); for IC50: read-out: inhibitory activity of cerebral edema (IC50)
Description: THE INHIBITION TEST ON CEREBRAL EDEMA USING ORGAN SLICE OF CAT CEREBRAL CORTEX
The test was carried out by the method described in Journal of Medicinal Chemistry, Vol. 25 (No. 5), 567 (1982).
That is, brain was isolated from a cat weighing 2~4 kg, slices of about 1 mm in thickness was prepared, the white matter substance was removed, and the gray matter substance (100~150 mg a test) was used for a sample. The sample was added to the following incubation medium and incuvated for 50 minutes at 37° C. After the incubation, the sample was immediately weighed again to determine the swelling weight of the sample.
(osmotic pressure, 280~290 mOsm/l)
1. Hepes Buffer (pH 7.4). . . 2.365 ml
adjusted to pH 7.4 by NaOH
2. test compounds [dissolved in the presence of tris(hydroxymethyl) aminomethane] or water. . . 0.01 ml
3. 0.2M NaHCO3 (dissolved by Hepes Buffer, giving the final concentration of 10 mM in medium) or Hepes Buffer. . . 0.125 ml
The test was carried out by using NaHCO3 as a stimulating agent of swelling.
(A) A percentage of swelling when a slice sample was added to incubation medium comprising Hepes Buffer, water and NaHCO3 (defined as maximum of swelling).
(B) A percentage of swelling when a slice sample was added to incubation medium comprising Hepes Buffer and water (defined as maximum inhibition of swelling).
(C) A percentage of swelling when a slice sample was added to incubation medium comprising Hepes Buffer, the test compounds in various concentrations and NaHCO3.
Above-mentioned (A), (B) and (C) were determined. Inhibition percentage of the test compounds was caliculated by the following equation: [formula] IC50 value was determined by dose-response curve as a concentration in which inhibition percentage was 50.
The results are shown Table I. And further, percentages of swelling of (C) was counted, in the case that concentration of test compound of (C) was 10^-8 M, and inhibition of swelling at the concentration of 10^-8 M was determined by percentages of swelling of both (A) and (B).

mice = assay: Acute toxicity test in mice by intravenous administration; type: in vivo; conditions: dead/treated
Description: For example, in the acute toxicity test in mice by intravenous administration, the mortality of compound of example 1 and 1-3 are 0/6 and 0/6 at the dose of 100 mg/kg and are 6/6 and 4/6 at the dose of 200 mg/kg, respectively.

SMILES	inhibition at 0.01 µM [1] [%]	IC50 [1] [nM]	mortality (mice; 100 mg/kg)	mortality (mice; 200 mg/kg)
O=C(c1ccccc1F)c1ccc(O[C@H]2CC[C@H](C(=O)O)C2)c(Cl)c1Cl [Example 1-8, (1S,3S)-3-[{2,3-dichloro-4-(2-fluorobenzoyl)}phenoxy]cyclopentanecarboxylicacid]	82	2.6		
O=C(c1ccccc1)c1ccc(O[C@H]2CC[C@H](C(=O)O)C2)c(Cl)c1Cl [Example 1, (1S,3S)-3-[(2,3-dichloro-4-benzoyl)phenoxy]cyclopentanecarboxylic acid]		5.5	0/6	6/6
O=C(c1cccs1)c1ccc(O[C@H]2CC[C@H](C(=O)O)C2)c(Cl)c1Cl [Example 1-3, (1S,3S)-3-[{2,3-dichloro-4-(2-thenoyl)}phenoxy]cyclopentanecarboxylic acid]		2.2	0/6	4/6
O=C(Cc1ccccc1)c1ccc(O[C@H]2CC[C@H](C(=O)O)C2)c(Cl)c1Cl [Example 1-13, (1S,3S)-3-[(2,3-dichloro-4-phenylacetyl)phenoxy]cyclopentanecarboxylic acid]	36			
O=C(c1cccc([N+](=O)[O-])c1)c1ccc(O[C@H]2CC[C@H](C(=O)O)C2)c(Cl)c1Cl [Example 1-12, (1S,3S)-3-[{2,3-dichloro-4-(3-nitrobenzoyl)}phenoxy]cyclopentanecarboxylic acid]	52			
O=C(c1ccccc1)c1ccc(O[C@H]2CC[C@H](C(=O)O)C2)c2ccccc12 [Example 4, (1S,3S)-3-(4-benzoyl-1-naphthoxy)cyclopentanecarboxylic acid]	41			
Cc1cccc(C(=O)c2ccc(O[C@H]3CC[C@H](C(=O)O)C3)c(Cl)c2Cl)c1 [Example 1-20, (1S,3S)-3-[{2,3-dichloro-4-(3-methylbenzoyl)}phenoxy]cyclopentanecarboxylicacid]	78			
O=C(c1ccccc1)c1ccc(O[C@H]2CC[C@H](C(=O)O)C2)cc1Cl [Example 1-25, (1S,3S)-3-[(3-chloro-4-benzoyl)phenoxy]cyclopentanecarboxylic acid]	100	3		
O=C(c1ccc(O[C@H]2CC[C@H](C(=O)O)C2)c(Cl)c1Cl)c1cccc2ccccc12 [Example 1-19, (1S,3S)-3-[{2,3-dichloro-4-(1-naphthoyl)}phenoxy]cyclopentanecarboxylic acid]	90	4.1		
